Measured values published in patent US20140045847A1, “CRYSTALLINE FORM OF A SALT OF A MORPHOLINO SULFONYL INDOLE DERIVATIVE AND A PROCESS FOR ITS PREPARATION” (PIRAMAL ENTERPRISES LIMITED, priority 2011, published 2014).
Each block holds one compound with its values, some of them ahead of it.

Key:
human tumor cell lines = settings: mesenchymal, epithelial and hematopoietic tumor cell lines; Carboni et al. 2009; cited from earlier work
pAkt = experiment: IGF-1R autophosphorylation assay (Western blot), pAkt; type: cell-based, human; settings: 1 h treatment, IGF-1 50 ng/mL stimulation
Method: (§1) Cells were grown and maintained in a medium containing 10% FBS. Cells grown as subconfluent monolayer, were subjected to serum starvation by replacing the respective culture medium with plain medium (containing no serum) and incubated for about 16 h at 37° C. in 5% CO2 incubator. Serum starved cells were treated with compound I at different concentrations for 1 h at 37° C. in 5% CO2 incubator and stimulated with IGF-1 (50 ng/mL) for the last 5 minutes of treatment with Compound I. After stimulation cells were washed twice with cold 1×PBS, pH 7.2 and cell lysates were prepared using CelLytic™ M cell lysis reagent (Sigma) containing protease and phosphatase inhibitors. Estimation of the total protein content in each cell lysate was carried out using Bradford reagent. Equal amount of protein from each lysate was subjected to Sodium Dodecyl Sulphate-Polyacrylamide Gel Electrophoresis (SDS-PAGE) followed by Western blotting protocol using specific antibody to pIGF-1R, IGF-1Rβ, pAkt, Akt, Pp70S6, p70S6, Pp44/42, p44/42 and loading control, β-actin. Imaging was done with BIO-RAD Image-Lab Software. The band density was then estimated using the software Image J. From the band densities of the various proteins at different concentrations of Compound I, the IC50 concentrations for various proteins were calculated, and are enumerated in Table 3.

[1] = Stability of the solid form under stress conditions; type: physicochemical
pIGF-1R = target: T1, pIGF-1R (Homo sapiens, UniProt P08069); experiment: IGF-1R autophosphorylation assay (Western blot), pIGF-1R; type: cell-based; settings: 1 h treatment, IGF-1 50 ng/mL stimulation
T1 construct: endogenous in cells
Method: as §1

Pp70S6 = experiment: IGF-1R autophosphorylation assay (Western blot), Pp70S6; type: cell-based, human; settings: 1 h treatment, IGF-1 50 ng/mL stimulation
Method: as §1

[2] = target: T2, intracellular kinase domain of human IGF-1R (GST fusion protein) (Homo sapiens, UniProt P08069); experiment: In vitro IGF-1R kinase assay (HTRF); type: biochemical; settings: ATP 20 μM, IGFRK 0.25 nM, read-out: IC50 IGF-1R enzyme
T2 construct: intracellular kinase domain of human IGF-1R and expressed as GST fusion proteins; GST; made in house
Method: The in vitro kinase assays using IGF-1R kinase GST fusion proteins were conducted using a homogeneous time-resolved fluorescence (HTRF) format. Kinase reactions were carried out in a 384-well plate format in a final volume of 20 μL. The standard enzyme reaction buffer consisted of 50 mM Tris HCL (pH: 7.4), 1 mM EGTA, 10 mM MgCl2, 2 mM DTT, 0.01% Tween-20, IGF-1R/IR kinase enzyme, poly GT peptide substrate (Perkin Elmer [Ulight Glu-Tyr (4:1)]n) and ATP [concentration equivalent to Kmapp]. […] Europium cryptate—labeled antiphosphotyrosine antibody PY20 (5 μL) was added (final concentration of 2 nM) and the mixture was allowed to equilibrate for 1 hour at 23° C. followed by reading the plate in an Envision plate reader. […] The IC50 values for Compound I in both, the crystalline form and the amorphous form were determined by a four-parameter sigmoidal curve fit (Sigma plot or Graph pad) as represented in Table 2.
IGFRK enzyme used for the assay was intracellular kinase domain of human IGF-1R and expressed as GST fusion proteins using the baculovirus expression system and purified using glutathione—Sepharose column. […]

RD-ES cells = experiment: Anti-proliferative assay (CellTiter-Glo), RD-ES; type: cell-based; settings: Homo sapiens, 72 h, 100 ng/mL IGF-1 without FCS
Method: (§2) The cancer cell lines were seeded in triplicate (at density, from 3000-5000 cells/well depending on cell type) with 10% FCS in 180 μL of culture medium in tissue culture grade 96 well plates and allowed to recover for 24 h in humidified 5% CO2 incubator at 37±1° C. […] Compound I in crystalline form was used at concentration range of 0.1, 1, 3 and 10 μM and the plates were incubated for 72 h in humidified 5% CO2 incubator at 37±1° C. Control wells were treated with vehicle (DMSO). At the end of the incubation periods, the plates were assayed by the CellTiter-Glo® Luminescent Cell Viability assay protocol. Percent cytoxicity was calculated at the various drug concentrations. Graph for cytotoxicity vs. concentration of Compound I was plotted, and the IC50 values were determined
(§3) The CellTiter-Glo® Luminescent Cell Viability Assay is a homogeneous method to determine the number of viable cells in culture based on quantitation of the ATP present, which signals the presence of metabolically active cells. The amount of ATP is directly proportional to the number of cells present in culture
(§4) • 1. […] The luminescence is recorded using the POLARstar optima plate reader […] Values are IC50 in nM for different cell lines are provided for the crystalline form of Compound I in Table 4.

A673 cells = experiment: Anti-proliferative assay (CellTiter-Glo), A673; type: cell-based; settings: Homo sapiens; A673, 72 h, 100 ng/mL IGF-1 without FCS
Method: as §2, §3, §4

MCF7 cells = experiment: Anti-proliferative assay (CellTiter-Glo), MCF7; type: cell-based; settings: Homo sapiens; MCF7, 72 h, 100 ng/mL IGF-1 without FCS
Method: as §2, §3, §4

RD cells = experiment: Anti-proliferative assay (CellTiter-Glo), RD; type: cell-based; settings: Homo sapiens, 72 h, 100 ng/mL IGF-1 without FCS
Method: as §2, §3, §4

HCT116 cells = experiment: Anti-proliferative assay (CellTiter-Glo), HCT116; type: cell-based; settings: Homo sapiens, HCT-116; HCT116, 72 h, 100 ng/mL IGF-1 without FCS
Method: as §2, §3, §4

SK-ES cells = experiment: Anti-proliferative assay (CellTiter-Glo), SK-ES; type: cell-based; settings: Homo sapiens, 72 h, 100 ng/mL IGF-1 without FCS
Method: as §2, §3, §4

[3] = Homo sapiens, A673, 1 h, A673 cells
[4] = MCF7 cells, listed as Crystalline form

T1 sequence (P08069 31-1367): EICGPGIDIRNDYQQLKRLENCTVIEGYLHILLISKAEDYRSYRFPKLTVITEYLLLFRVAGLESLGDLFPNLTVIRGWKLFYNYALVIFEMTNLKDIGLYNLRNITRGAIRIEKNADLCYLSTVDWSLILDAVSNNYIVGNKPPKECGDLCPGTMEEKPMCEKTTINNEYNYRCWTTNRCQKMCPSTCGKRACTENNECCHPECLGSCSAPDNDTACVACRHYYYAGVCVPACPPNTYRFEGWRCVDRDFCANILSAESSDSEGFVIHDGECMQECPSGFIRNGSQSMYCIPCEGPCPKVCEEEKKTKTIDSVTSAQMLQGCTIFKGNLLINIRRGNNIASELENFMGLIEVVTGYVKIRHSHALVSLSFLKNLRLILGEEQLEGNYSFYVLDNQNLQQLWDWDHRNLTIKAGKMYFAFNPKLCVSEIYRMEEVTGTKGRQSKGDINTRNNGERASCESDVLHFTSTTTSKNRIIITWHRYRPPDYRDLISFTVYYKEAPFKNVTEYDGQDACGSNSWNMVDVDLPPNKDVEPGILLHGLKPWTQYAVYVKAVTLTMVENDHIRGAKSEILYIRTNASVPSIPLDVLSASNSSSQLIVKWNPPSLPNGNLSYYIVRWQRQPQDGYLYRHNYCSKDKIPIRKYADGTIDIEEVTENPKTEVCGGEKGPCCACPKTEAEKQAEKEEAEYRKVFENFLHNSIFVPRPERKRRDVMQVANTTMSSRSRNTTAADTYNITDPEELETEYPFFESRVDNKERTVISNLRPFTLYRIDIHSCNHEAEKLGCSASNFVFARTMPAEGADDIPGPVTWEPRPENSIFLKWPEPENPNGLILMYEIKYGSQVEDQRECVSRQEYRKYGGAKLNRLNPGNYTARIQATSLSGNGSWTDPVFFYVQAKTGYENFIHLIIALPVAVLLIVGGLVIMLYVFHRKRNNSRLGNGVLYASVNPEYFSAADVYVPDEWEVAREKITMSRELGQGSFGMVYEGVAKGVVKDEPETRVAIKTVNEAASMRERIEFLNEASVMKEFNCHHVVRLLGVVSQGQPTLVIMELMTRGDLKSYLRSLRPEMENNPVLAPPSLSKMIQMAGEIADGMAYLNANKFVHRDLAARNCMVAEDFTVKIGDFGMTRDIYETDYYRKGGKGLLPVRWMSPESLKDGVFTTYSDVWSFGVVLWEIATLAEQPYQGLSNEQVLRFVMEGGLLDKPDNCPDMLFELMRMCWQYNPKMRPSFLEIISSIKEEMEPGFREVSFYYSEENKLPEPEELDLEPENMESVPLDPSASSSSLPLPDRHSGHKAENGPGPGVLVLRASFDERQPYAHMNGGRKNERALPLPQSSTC
T2 sequence (P08069 999-1274 limits assumed): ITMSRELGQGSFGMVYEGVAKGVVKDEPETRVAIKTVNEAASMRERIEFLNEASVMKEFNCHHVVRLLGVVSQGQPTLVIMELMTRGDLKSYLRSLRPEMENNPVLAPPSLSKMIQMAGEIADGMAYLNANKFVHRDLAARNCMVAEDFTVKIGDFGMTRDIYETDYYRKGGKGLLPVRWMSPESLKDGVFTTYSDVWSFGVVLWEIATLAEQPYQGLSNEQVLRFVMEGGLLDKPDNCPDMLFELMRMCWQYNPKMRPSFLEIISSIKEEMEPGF

SMILES: C[C@@]1(C(=O)Nc2ccc(F)nc2)CCCN1c1nc(Nc2cc(C3CC3)n[nH]2)c2cccn2n1 [BMS-754807]
- inhibition of growth of human tumor types in vitro (human tumor cell lines): effectively inhibits the growth

- IC50 (pAkt; Colo205 cells, listed as Amorphous form): 620 nM
- IC50 (pAkt; [3]): 260 nM
- IC50 (pAkt; MCF7 cells, listed as Amorphous form): 380 nM
- stability under stress conditions ([1]; listed as amorphous form of Compound I): unstable under stress conditions
- IC50 (pIGF-1R; A673 cells): < 10 nM
- IC50 (pIGF-1R; Colo205 cells): 400 nM
- IC50 (pIGF-1R; MCF7 cells): 15 nM
- IC50 (Pp70S6; [3]): 450 nM
- IC50 (Pp70S6; Homo sapiens, MCF7, 1 h, MCF7 cells): 680 nM
SMILES: CCOC(=O)N1CCC(Nc2cc(Cl)cc3c(S(=O)(=O)N4CCO[C@H](COc5ccccc5)C4)c(C(N)=O)[nH]c23)CC1 [Compound I (amorphous form), (S)-ethyl 4-(2-carbamoyl-5-chloro-3-(2-(phenoxymethyl)morpholinosulfonyl)-1H-indol-7-ylamino)piperidine-1-carboxylate methane sulfonate]

- IC50 [2]: 22 nM
- IC50 (pAkt; A673 cells): 220 nM
- IC50 (pAkt; Colo205 cells, listed as Crystalline form): 23 nM
- IC50 (pAkt; [4]): 50 nM
- IC50 (MCF7 cells): 160 nM
- IC50 (HCT116 cells): 900 nM
- IC50 (pIGF-1R; A673 cells): 30 nM
- IC50 (pIGF-1R; Colo205 cells): 46 nM
- IC50 (Pp70S6; [4]): 460 nM
- IC50 (SK-ES cells): 450 nM
SMILES: CCOC(=O)N1CCC(Nc2cc(Cl)cc3c(S(=O)(=O)N4CCO[C@H](COc5ccccc5)C4)c(C(N)=O)[nH]c23)CC1 [Compound I (crystalline form), (S)-ethyl 4-(2-carbamoyl-5-chloro-3-(2-(phenoxymethyl)morpholinosulfonyl)-1H-indol-7-ylamino)piperidine-1-carboxylate methane sulfonate]
- IC50 (RD-ES cells): 250 nM
- IC50 (A673 cells): 1800 nM
- IC50 (RD cells): 1400 nM
- stability under stress conditions ([1]; listed as crystalline form of Compound I): stable with reproducible pharmacological activity even under stress conditions
